The target in the assay is h-mT1R2-481/T1R3mosaicB (UniProt Q8TE23+Q925D8, A537S/A558R/A564V/A568V/A570T/A588V/A645S/A649T/A658V/A698V/A702T/A782V/A793V/A807V/A88D/C582S/C678S/E530V/E534N/E542M/E548N/E725V/F525Y/F541I/F612A/F622V/F665L/F695L/F71L/G696N/G701T/G86K/H484Y/H528R/H728R/I152V/I481V/I486P/I490V/I510L/I518V/I595M/I617V/I643V/I645L/I692L/I695G/I706V/I740A/I803L/K504M/K555R/K565R/K626T/K714N/K818R/K827G/L151M/L521P/L560F/L571I/L578I/L610P/L631F/L636F/L639V/L684P/L688V/L68N/L702I/L72W/L734M/L735F/L800F/L823M/L825Q/M492I/M616G/M644L/M682V/M690V/M744T/M748V/M74L/N540G/N541S/N547G/N675D/N721H/P545F/P561R/P564S/P638T/P67S/P824S/Q123R/Q536L/Q546K/Q550E/Q555R/Q611L/Q676H/Q757R/Q795R/Q831P/R498S/R632Q/R667S/S112P/S124D/S501P/S547N/S550A/S576L/S595F/S610P/S628F/S635P/S637R/S663R/S670G/S679G/S681F/S703N/S717H/S727G/S784D/S804G/T109A/T529S/T542A/T549I/T609V/T629S/T642S/T663I/T694M/T705I/T706G/T716I/T813A/V120A/V508I/V512P/V557A/V573A/V584A/V585L/V613L/V617M/V673M/V687A/V691A/V694A/V718L/V718M/V723A/V729T/V738A/V741L/V774I/V791M/V805L/V812A/V821L/W599R/W676R/W824R/Y533F/Y615F/Y671F/Y680C/Y769S/Y783H/Y794L). Conditions: Table 6; genes h-mT481/T1R3mB (h-mT1R2-481, T1R3mB); HEK293E cells.
h-mT1R2-481/T1R3mosaicB, sequence (Q8TE23 with tags, fused parts or gaps with the stated changes limits assumed): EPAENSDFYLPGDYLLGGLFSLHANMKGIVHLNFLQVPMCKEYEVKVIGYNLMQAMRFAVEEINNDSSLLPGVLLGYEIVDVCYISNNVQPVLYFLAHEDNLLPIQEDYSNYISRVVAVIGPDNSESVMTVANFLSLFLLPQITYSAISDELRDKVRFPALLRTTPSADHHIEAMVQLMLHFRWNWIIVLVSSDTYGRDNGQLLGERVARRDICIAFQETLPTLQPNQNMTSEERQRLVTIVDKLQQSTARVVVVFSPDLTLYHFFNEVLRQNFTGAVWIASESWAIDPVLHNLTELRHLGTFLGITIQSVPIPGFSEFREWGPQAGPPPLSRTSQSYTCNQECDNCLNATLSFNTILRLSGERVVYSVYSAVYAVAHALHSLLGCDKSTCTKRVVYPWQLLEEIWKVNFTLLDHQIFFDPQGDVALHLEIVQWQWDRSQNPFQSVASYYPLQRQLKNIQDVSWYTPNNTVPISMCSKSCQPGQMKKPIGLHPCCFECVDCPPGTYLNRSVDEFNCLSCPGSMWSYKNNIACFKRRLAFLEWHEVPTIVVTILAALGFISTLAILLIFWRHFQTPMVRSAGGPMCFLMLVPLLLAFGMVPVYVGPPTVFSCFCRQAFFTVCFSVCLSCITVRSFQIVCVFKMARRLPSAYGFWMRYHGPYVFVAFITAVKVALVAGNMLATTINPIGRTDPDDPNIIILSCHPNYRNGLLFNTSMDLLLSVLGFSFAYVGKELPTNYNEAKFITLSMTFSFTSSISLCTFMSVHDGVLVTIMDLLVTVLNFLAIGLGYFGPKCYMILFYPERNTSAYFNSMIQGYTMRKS
h-mT1R2-481/T1R3mosaicB, sequence (Q925D8 with tags, fused parts or gaps with the stated changes limits assumed): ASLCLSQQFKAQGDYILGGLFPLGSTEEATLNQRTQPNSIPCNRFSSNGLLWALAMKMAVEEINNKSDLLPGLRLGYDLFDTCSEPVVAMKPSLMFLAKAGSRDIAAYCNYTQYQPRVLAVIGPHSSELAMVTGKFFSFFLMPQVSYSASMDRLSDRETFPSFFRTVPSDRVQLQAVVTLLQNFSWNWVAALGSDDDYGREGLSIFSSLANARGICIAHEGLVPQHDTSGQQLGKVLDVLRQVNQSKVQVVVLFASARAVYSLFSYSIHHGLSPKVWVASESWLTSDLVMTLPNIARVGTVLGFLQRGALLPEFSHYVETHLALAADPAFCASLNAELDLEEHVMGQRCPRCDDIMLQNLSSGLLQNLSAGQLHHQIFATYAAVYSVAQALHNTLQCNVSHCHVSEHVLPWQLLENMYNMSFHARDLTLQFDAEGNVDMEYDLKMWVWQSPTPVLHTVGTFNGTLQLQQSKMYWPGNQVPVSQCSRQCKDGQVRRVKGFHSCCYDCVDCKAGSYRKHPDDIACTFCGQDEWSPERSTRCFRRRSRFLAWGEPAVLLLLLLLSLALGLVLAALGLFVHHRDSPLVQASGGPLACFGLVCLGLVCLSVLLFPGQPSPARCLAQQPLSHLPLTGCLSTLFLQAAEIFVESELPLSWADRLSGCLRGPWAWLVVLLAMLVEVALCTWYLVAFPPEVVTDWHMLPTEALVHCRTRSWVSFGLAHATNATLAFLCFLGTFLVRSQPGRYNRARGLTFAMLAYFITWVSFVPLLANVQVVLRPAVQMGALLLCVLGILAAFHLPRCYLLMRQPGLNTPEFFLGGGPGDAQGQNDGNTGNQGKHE

This is an account of results in patent publication US9341616B2, “Sweet taste receptor chimeric proteins and use thereof” (AJINOMOTO CO., INC., priority 2014, dated 2016).

Each structure is given as a SMILES string. Residues, ends and D or L forms follow the SMILES beside them.

As to `CC1=CC(=O)NS(=O)(=O)O1` [Acesulfame K, acesulfame potassium], the S/N was found to be 5.6.
On to `COC(=O)[C@H](Cc1ccccc1)NC(=O)[C@H](CC(=O)O)NCCCc1ccc(OC)c(O)c1` [Advantame, advantame], for which the S/N came out at 10.2.
Under `COC(=O)[C@H](Cc1ccccc1)NC(=O)[C@@H](N)CC(=O)O` [Aspartame, aspartame] (HELM PEPTIDE1{D.F.[CO[*:1]]}$$$$V2.0) stands 7.8; under `COc1ccc(CCC(=O)c2c(O)cc(O[C@@H]3O[C@H](CO)[C@@H](O)[C@H](O)[C@H]3O[C@@H]3O[C@@H](C)[C@H](O)[C@@H](O)[C@H]3O)cc2O)cc1O` [NHDC, neohesperidin dihydrochalcone], 5.8.
Under `COC(=O)[C@H](Cc1ccccc1)NC(=O)[C@H](CC(=O)O)NCCC(C)(C)C` [Neotame, neotame] stands 7.7; under `C[C@H](NC(=Nc1ccc(C#N)cc1)NCC(=O)O)c1ccccc1` [SC-45647, [3-[(S)-1-phenylethyl]-2-(4-cyanophenyl)guanidino]acetic acid], 7.7; under `O=C1NS(=O)(=O)c2ccccc21.[Na]` [Saccharin Na, sodium saccharin], 6.1.
Under `OC[C@H]1O[C@H](O[C@]2(CCl)O[C@H](CCl)[C@@H](O)[C@@H]2O)[C@H](O)[C@@H](O)[C@H]1Cl` [Sucralose, sucralose] stands 6.6; under `OC[C@H]1O[C@@](CO)(O[C@H]2O[C@H](CO)[C@@H](O)[C@H](O)[C@H]2O)[C@@H](O)[C@@H]1O` [Sucrose, sucrose], 4.0.
